“Also recorded” adds a separate entry of the source.
Legend:
DNA Pol III (χ) [1] = assay: ITC of SSB-Ct peptides binding to the χ subunit; set-up: species or system Escherichia coli; settings: pH 8.0, 50 mM NaCl, 25°C; N fixed to 1
Protocol: (§1) The concentrations were determined thereafter.

PriA [2] = settings: previous study; cited from earlier work
Protocol: All binding reactions were performed under identical solution conditions, although additional experiments were performed at a lower [NaCl] for PriC as indicated, ...

PriA [3] = settings: pH 8.0, 50 mM NaCl, 25°C; N fixed to 1
Protocol: Isothermal titration calorimetry (ITC) experiments were performed using a VP-ITC titration microcalorimeter (Malvern Panalytical, Malvern, UK) ([68]). All proteins and oligonucleotides were dialyzed extensively against the indicated buffer and cleared by centrifugation at 14 000 rpm for 15 min at 4°C. The concentrations were determined thereafter. For experiments with the SSB-Ct peptides and SIPs, 40–50 μM peptides were titrated into 1–2 μM SIPs in Buffer BTP at pH 8.0 and 50 mM NaCl. For experiments with the full-length SSB and its deletion mutants and SIPs, SSB tetramer (8–10 μM) was titrated into SIP (1 μM) in Buffer BTP at pH 7.0 and 200 mM NaCl. The heats of dilution were obtained by blank titrations in which the titrant species is titrated into the buffer, and corrections for heats of dilution were applied.
The raw data were analyzed to obtain titration curves by integrating each peak from the time of titrant addition until equilibration back to the baseline using ‘MicroCal Data Analysis’ software provided by the manufacturer. […] The concentration of the free ligand (X) was obtained by solving Equation (2).(2)
In Equations (1) and (2), and are the total concentrations of the ligand and macromolecule, respectively, in the calorimetric cell after ith injection and X is the free ligand concentration. Nonlinear least-squares fitting of the data was performed using the same software. […]

DNA Pol III (χ) [4] = settings: previous study; cited from earlier work
Excerpt: When DNA is bound to the DBD, the acidic tip no longer interacts with the DBD and thus is more available to interact with a SIP. This is supported by the observation that ΔH = −6.0 ± 0.1 kcal/mol for RecO binding to the SSBΔ120-166–(dT)70 complex, which should not contain contributions from the acidic tip-DBD intramolecular interactions.

E. coli RecO = assay: ITC of SSB-Ct peptides binding to RecO; set-up: species or system Escherichia coli; settings: 25°C
Protocol: as §1

PriC = assay: ITC of SSB-Ct peptides binding to PriC; set-up: species or system Escherichia coli; settings: 25°C
Protocol: as §1

(dT)70 = assay: ITC control of P65 peptide and (dT)70; format: binding; settings: BTP pH 7.0, 20 mM NaCl, 25°C
Protocol: The concentrations were determined thereafter. […]
Figure S7. Results from various control ITC titrations of (a) SSB-A and RecO at 15°C and (b) 25°C, (c) SSB-A and c, (d) P65 and (dT)70, (e) (dT)70 and SSB-A, and (f) (dT)70 and wtSSB. (a) SSB-A (10 µM), a homo-tetrameric SSB variant containing an additional six amino acids, TGASGT, at the C-terminus of each subunit, was titrated into […]
(5.9 µM) was titrated into c (1 µM) in buffer T (10 mM Tris-HCl, pH 8.1, 200 mM NaCl, […]
0.1 mM EDTA) at 25° C. […] (d) dT70 (60 µM) was […]
titrated into P65 (2 µM) in buffer BTP (pH 7.0, 20 mM NaCl) at 25° C. P65, the full-length […]
(dT)70. (e) (dT)70 (15 µM) was titrated into SSB-A (1 µM) in buffer T at 25° C. SSB-A (also on this page, place not known: 15°C 25°C. 25°C. 25°C. 25°C. 2.00 kcal mol-1 of injectant kcal mol-1 of injectant [SSB-A]tot/[RecO]tot kcal mol-1 of injectant [SSB-A]tot/[c]tot (f)(d))

For “P15: SSB-Ct peptide, C-terminal 15 amino acids of E. coli SSB, contains acidic tip, no PXXP motifs (PSNEPPMDFDDDIPF)”, the “K (equilibrium binding constant)” value (DNA Pol III (χ) [1]) is listed as “(3.0 ± 0.1) × 10^5 M^−1”, the “binding to PriA” value (PriA [2]) is listed as “same affinity as P9” and the “K (equilibrium binding constant)” value (PriA [3]) is listed as “(2.6 ± 0.1) × 10^5 M^−1”. The “binding to χ” value (DNA Pol III (χ) [4]) was “same affinity as P9”, the “K” value (E. coli RecO; BTP pH 7, 200 mM NaCl) was “(1.1 ± 0.1) × 10^6 M^−1” and the “K (equilibrium binding constant)” value (E. coli RecO; pH 8.0, 50 mM NaCl, N fixed to 1) was “(1.2 ± 0.3) × 10^7 M^−1”. The “K (equilibrium binding constant)” value (PriC; pH 8.0, 10 mM NaCl, N fixed to 1) was “(1.6 ± 0.1) × 10^6 M^−1” and the “binding detected by ITC” value (PriC; pH 8.0, 50 mM NaCl) was “undetectable; also recorded: showed no binding”.

B1: P65: SSB-Ct peptide, C-terminal 65 amino acids of SSB; acidic tip and the full IDL (peptide)
peptide: GGRQGGGAPAGGNIGGGQPQGGWGQPQQPQGGNQFSGGAQSRPQQSAPAAPSNEPPMDFDDDIPF
In the case of B1, the “binding to (dT)70 by ITC” value ((dT)70) is reported as “does not interact; also recorded: no detectable interaction”.

Source: article PMC7145534, “Are the intrinsically disordered linkers involved in SSB binding to accessory proteins?” (Nucleic Acids Research, 2019)
